US20250295620A1, “PHARMACEUTICAL COMPOSITION FOR TREATMENT OF HEART FAILURE WITH DIASTOLIC DYSFUNCTION” (NATIONAL UNIVERSITY CORPORATION TOKAI NATIONAL HIGHER …, priority 2022, published 2025)

Legend:
[1] = test system: HFpEF patients; conditions: clinical studies, Anker S et al., N Engl J Med 2021; cited from earlier work
[2] = test system: HFpEF model mice; assay: Transthoracic echocardiography in HFpEF model mice, Example 2; format: in vivo; conditions: tamibarotene 3 mg/kg, peretinoin 10 mg/kg, oral gavage once a day, five weeks; for left ventricular ejection fraction before and after drug administration: Example 2, FIG. 6; for E/e′ ratio after completion of drug administration compared with before start: Example 2, FIG. 7
Description: (§1) HFpEF model mice are generated by the method reported by Schiattarella et al. (Nature. 568 (7752): 351-356. 2019). Specifically, male mice at an age of 8 to 10 weeks are given High Fat Diet (Rodent Diet with 60% kcal % fat, D12492, Research Diets Inc.) and drinking water containing a dissolved nitric oxide synthase inhibitor (No-nitro-L-arginine methyl ester hydrochloride (L-NAME), N5751, Sigma) (at a concentration of 0.5 g/L), and kept for five weeks. Various measurements are performed to confirm the establishment of an HFpEF model.
(§2) The following drugs are administered to mouse groups while mice are continued to be given the high-fat diet and the drinking water containing the dissolved nitric oxide synthase inhibitor. AM80 (Cat. No. 3507, TOCRIS) is orally administered to tamibarotene administration group via oral gavage at a single dose of 3 mg/kg once a day. Peretinoin (Cat. No. HY-100008, MedChemExpress) is orally administered to peretinoin administration group via oral gavage at a single dose of 10 mg/kg once a day. DMSO as a vehicle is orally administered to control group via oral gavage once a day. Administration is continued for five weeks, and various measurements are performed five weeks after the initial drug administration.
(§3) Transthoracic echocardiography is performed on mice under inhalational anesthesia with isoflurane. Transmitral flow velocity pattern (TMF) is measured by pulsed Doppler echocardiography using vevo 3100 (FUJIFILM VisualSonics) equipped with a 30 MHz probe for small animals (MX-400) to determine the early diastolic inflow velocity pattern (E-wave). Early diastolic mitral annular velocity (e′) is measured by tissue Doppler echocardiography. The transmitral E velocity is divided by the e′ velocity to calculate an E/e′ ratio. LV end-systolic diameter and LV end-diastolic diameter are measured by M-mode echocardiography to calculated an LV ejection fraction (EF %).

[3] = test system: HFpEF model mice; assay: Masson's trichrome staining of heart tissue of HFpEF model mice, Example 2; format: in vivo; conditions: Example 2, FIG. 9; tamibarotene 3 mg/kg, peretinoin 10 mg/kg, oral gavage once a day, five weeks; 400-fold
Description: as §1
as §2, with “Administration is continued for five weeks, and various measurements are performed five weeks after the initial drug administration.” left out
Tissue specimens are prepared from the harvested heart, and stained with Masson's trichrome staining. The tissue fibrosis is photographed, and the images are analyzed using Image J for assessment.

[4] = test system: HFpEF model mice; assay: Pressure-volume loop analysis with conductance catheter in HFpEF model mice, Example 2; format: in vivo; conditions: Example 2, FIG. 8; tamibarotene 3 mg/kg, peretinoin 10 mg/kg, oral gavage once a day, five weeks
Description: as §1
as §2, with “administration. […]” for “administration.”

[5] = test system: HFpEF model mice; assay: Pressure-volume loop analysis with conductance catheter in HFpEF model mice, Example 1; format: in vivo; conditions: Example 1, FIG. 4; tamibarotene 3 mg/kg, peretinoin 0.3 mg/body, oral gavage once a day, five weeks
Description: as §1
as §2, with “0.3 mg/body” for “10 mg/kg”, “administration. […]” for “administration.”

[6] = test system: HFpEF model mice; assay: Diastolic function of HFpEF model mice, overall conclusion from Examples 1 and 2; format: in vivo; conditions: summary of Examples 1 and 2
Description: as §1
The following drugs are administered to mouse groups while mice are continued to be given the high-fat diet and the drinking water containing the dissolved nitric oxide synthase inhibitor. […]
as §3, with “The transmitral E velocity is divided by the e′ velocity to calculate an E/e′ ratio.” left out, “%). […]” for “%).”

[7] = test system: HFpEF model mice; assay: Heart weight/tibia length measurement in HFpEF model mice, Example 2; format: in vivo; conditions: Example 2, FIG. 5; tamibarotene 3 mg/kg, peretinoin 10 mg/kg, oral gavage once a day, five weeks; compared among groups incl. DMSO control
Description: as §1, §2
Mice are euthanized after the catheterization, and the heart is harvested for weight measurement. […]

[8] = test system: HFpEF model mice; assay: Transthoracic echocardiography in HFpEF model mice, Example 1; format: in vivo; conditions: tamibarotene 3 mg/kg, peretinoin 0.3 mg/body, oral gavage once a day, five weeks; for left ventricular ejection fraction before and after drug administration: Example 1, FIG. 2; for E/e′ ratio after completion of drug administration compared with before start: Example 1, FIG. 3
Description: as §1
as §2, with “0.3 mg/body” for “10 mg/kg”
as §3

Structure (SMILES) | efficacy for HFpEF patients [1] | left ventricular ejection fraction before and after drug administration [2] | E/e′ ratio after completion of drug administration compared with before start [2] | tissue fibrosis (fibrosis area, high-power field) compared with control group [3] | stiffness constant β compared with control group [4] | stiffness constant β compared with control group [5] | effect on the diastolic function of the HFpEF model mice [6] | heart weight/tibia length ratio after completion of drug administration [7] | left ventricular ejection fraction before and after drug administration [8] | E/e′ ratio after completion of drug administration compared with before start [8]
OC[C@H]1O[C@@H](c2ccc(Cl)c(Cc3ccc(O[C@H]4CCOC4)cc3)c2)[C@H](O)[C@@H](O)[C@@H]1O [Empagliflozin] | effective | – | – | – | – | – | – | – | – | –
CC(C)=CCC/C(C)=C/CC/C(C)=C/C=C/C(C)=C/C(=O)O [peretinoin] | – | no difference | significantly reduced | significantly reduced | significantly reduced | reduced | improving effect | no significant difference | no difference | significantly reduced
CC1(C)CCC(C)(C)c2cc(NC(=O)c3ccc(C(=O)O)cc3)ccc21 [tamibarotene] | – | no difference | significantly reduced | significantly reduced | significantly reduced | reduced | improving effect | no significant difference | no difference | significantly reduced
